Data published in ChEMBL document CHEMBL3808322, “Structure-based discovery of novel 4,5,6-trisubstituted pyrimidines as potent covalent Bruton's tyrosine kinase inhibitors” (Bioorg Med Chem Lett, 2016).

Legend:
[1] = target: T1, Tyrosine-protein kinase BTK (Homo sapiens, UniProt Q06187); assay: Inhibition of BTK (unknown origin)
[2] = target: T1, Tyrosine-protein kinase BTK; assay: Inhibition of BTK (unknown origin) assessed as reduction in phosphorylation of coumarin and fluorescein-labeled FRET peptide substrate incubated for 1 hr by Z-Lyte assay

T1 sequence (Q06187 whole entry): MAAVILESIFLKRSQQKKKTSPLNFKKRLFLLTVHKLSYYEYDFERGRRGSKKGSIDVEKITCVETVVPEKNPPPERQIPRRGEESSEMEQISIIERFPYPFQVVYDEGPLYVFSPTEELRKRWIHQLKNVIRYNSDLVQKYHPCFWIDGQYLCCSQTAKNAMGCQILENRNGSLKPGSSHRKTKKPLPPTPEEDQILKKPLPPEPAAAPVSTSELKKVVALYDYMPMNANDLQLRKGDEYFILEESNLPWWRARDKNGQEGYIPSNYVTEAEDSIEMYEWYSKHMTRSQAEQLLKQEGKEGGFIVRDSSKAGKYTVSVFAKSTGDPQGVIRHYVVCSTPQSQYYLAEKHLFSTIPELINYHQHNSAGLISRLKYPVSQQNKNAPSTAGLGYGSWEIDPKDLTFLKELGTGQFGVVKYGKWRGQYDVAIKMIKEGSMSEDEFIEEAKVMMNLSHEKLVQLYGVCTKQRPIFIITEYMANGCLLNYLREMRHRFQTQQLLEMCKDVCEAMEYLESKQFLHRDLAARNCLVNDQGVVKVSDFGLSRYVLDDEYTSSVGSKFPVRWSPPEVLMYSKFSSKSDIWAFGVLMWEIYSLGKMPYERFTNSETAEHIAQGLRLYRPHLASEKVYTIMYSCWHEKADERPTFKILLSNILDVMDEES

| Compound | IC50 [1] | IC50 [2] |
| --- | --- | --- |
| C=CC(=O)N1CCC[C@@H](n2c(=O)n(-c3ccc(Oc4ccccc4)cc3)c3c(N)ncnc32)C1 | 23.9 nM | – |
| C=CC(=O)Nc1cccc(Oc2nc(Nc3ccc(N4CCN(C)CC4)cc3)nc3ccsc23)c1 [OLMUTINIB] | 1 nM | – |
| C=CC(=O)N1CCC[C@@H](Nc2ncnc(N)c2C(=O)c2ccc(OCC)cc2)C1 | – | 1800 nM |
| C=CC(=O)N1CCN(c2ncnc(N)c2C(=O)c2ccc(OCC)cc2)CC1 | – | 1320 nM |
| C=CC(=O)N1CCC(Nc2ncnc(N)c2C(=O)c2ccc(Oc3ccccc3)cc2)CC1 | – | 1070 nM |
| C=CC(=O)N1CCN(c2ncnc(N)c2C(=O)c2ccc(Oc3ccccc3)cc2)CC1 | – | 880 nM |
| C=CC(=O)N1CCC[C@@H](Nc2ncnc(N)c2C(=O)c2ccc(Oc3ccccc3)cc2)C1 | – | 70 nM |
